Molecular target: CD137 (Homo sapiens, UniProt Q07011)
Assay: CD137 reporter assay, co-culture with PD-L1 expressing cell line RKO
Type: cell-based
Set-up: host or cells: Jurkat reporter cells
Details: tumour target PD-L1, co-culture with RKO, 6 h; for fold induction: read-out: Fold Induction over Background
Protocol: Culture medium referred to as R1 media is prepared by adding 1% FBS to RPMI-1640 (component of Promega kit CS196005). Serial dilutions of test articles in R1 are prepared in a sterile 96 well-plate. Use 25 μl per well of test articles or R1 (as a background control) to designated wells in white cell culture plate. Tumour cells* are harvested and resuspended at a concentration of 400,000 cells/mL in R1 media. Twenty five (25) μL/well tumour cells are used in white cell culture plate. Jurkat cells (Promega kit CS196005, 0.5 mL) are thawed in the water bath and then added to 5 ml pre-warmed R1 medium. Twenty five (25) μL/well Jurkat cells are used in white cell culture plate. Incubate the cells and test articles for 6h at 37° C., 5% CO2. At the end of 6 h, add 75 μl/well Bio-Glo™ (Promega) and incubate for 10 min before reading luminescence in a plate reader (Clariostar, BMG). The fold change relative to cells (Jurkat cells+Cell line used in co-culture) is calculated and plotted in GraphPad Prism as log(agonist) vs response to determine EC50 (nM) and Fold Induction over background (Max)

Chain of CD137 (Q07011 24-255): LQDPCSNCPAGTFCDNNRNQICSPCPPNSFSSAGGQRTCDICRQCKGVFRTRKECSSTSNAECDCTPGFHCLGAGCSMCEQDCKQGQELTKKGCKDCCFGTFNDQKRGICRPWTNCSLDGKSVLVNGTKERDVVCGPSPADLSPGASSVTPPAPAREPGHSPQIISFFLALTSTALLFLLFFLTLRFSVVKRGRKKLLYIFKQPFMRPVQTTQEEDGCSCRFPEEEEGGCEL

| SMILES | Fold Induction over Background [fold] | EC50 [nM] | fold induction |
| --- | --- | --- | --- |
| CCCC[C@@H]1NC(=O)[C@H](Cc2ccc(O)cc2)NC(=O)[C@@H]2CCCN2C(=O)[C@H](CC(=O)O)NC(=O)[C@H](C)NC(=O)[C@H](Cc2ccccc2)NC(=O)[C@@H]2CSCCC(=O)N3CN(CN(C3)C(=O)CCSC[C@@H](C(=O)N[C@@H](C)C(N)=O)NC1=O)C(=O)CCSC[C@H](NC(C)=O)C(=O)N[C@@H](CC(C)(C)C)C(=O)N1CCC[C@H]1C(=O)N[C@@H](CCCCNC(=O)Cn1cc(CCC(=O)NCCCC[C@@H]3NC(=O)[C@H](CCC(N)=O)NC(=O)[C@@H]4CSCCC(=O)N5CN(CN(C5)C(=O)CCSC[C@@H](C(=O)N5CCC[C@H]5C(=O)N[C@@H](CO)C(=O)N[C@@H](Cc5c[nH]cn5)C(N)=O)NC(=O)[C@H](CC(C)C)NC(=O)[C@H](Cc5c[nH]cn5)NC(=O)[C@H](CC(C)C)NC3=O)C(=O)CCSC[C@H](NC(=O)[C@H](CCCCN)NC(=O)[C@H](CC(=O)O)NC(=O)[C@H](CO)NC(C)=O)C(=O)N[C@@H](CO)C(=O)N[C@@H](C)C(=O)NCC(=O)N[C@@H](Cc3c[nH]c5ccccc35)C(=O)N[C@@H](CC(C)C)C(=O)N[C@@H]([C@@H](C)O)C(=O)N[C@@H](CCSC)C(=O)N4)nn1)C(=O)N[C@H](C)C(=O)N1CCC[C@H]1C(=O)N[C@@H](Cc1ccc(O)cc1)C(=O)N2 [BCY11376] | 9 |  |  |
| CCCC[C@@H]1NC(=O)[C@H](Cc2ccc(O)cc2)NC(=O)[C@@H]2CCCN2C(=O)[C@H](CC(=O)O)NC(=O)[C@H](C)NC(=O)[C@H](Cc2ccccc2)NC(=O)[C@@H]2CSCCC(=O)N3CN(CN(C3)C(=O)CCSC[C@@H](C(=O)N[C@@H](C)C(N)=O)NC1=O)C(=O)CCSC[C@H](NC(C)=O)C(=O)N[C@@H](CC(C)(C)C)C(=O)N1CCC[C@H]1C(=O)N[C@@H](CCC(=O)O)C(=O)N[C@H](CCCCNC(=O)Cn1cc(CCC(=O)NCCCC[C@@H]3NC(=O)[C@H](CCC(N)=O)NC(=O)[C@@H]4CSCCC(=O)N5CN(CN(C5)C(=O)CCSC[C@@H](C(=O)N5CCC[C@H]5C(=O)N[C@@H](CO)C(=O)N[C@@H](Cc5c[nH]cn5)C(N)=O)NC(=O)[C@H](CC(C)C)NC(=O)[C@H](Cc5c[nH]cn5)NC(=O)[C@H](CC(C)C)NC3=O)C(=O)CCSC[C@H](NC(=O)[C@H](CCCCN)NC(=O)[C@H](CC(=O)O)NC(=O)[C@H](CO)NC(C)=O)C(=O)N[C@@H](CO)C(=O)N[C@@H](C)C(=O)NCC(=O)N[C@@H](Cc3c[nH]c5ccccc35)C(=O)N[C@@H](CC(C)C)C(=O)N[C@@H]([C@@H](C)O)C(=O)N[C@@H](CCSC)C(=O)N4)nn1)C(=O)N1CCC[C@H]1C(=O)N[C@@H](Cc1ccc(O)cc1)C(=O)N2 [BCY11377] | 6 |  |  |
| CCCC[C@@H]1NC(=O)[C@H](Cc2ccc(O)cc2)NC(=O)[C@@H]2CCCN2C(=O)[C@H](CC(=O)O)NC(=O)[C@H](C)NC(=O)[C@H](Cc2ccccc2)NC(=O)[C@@H]2CSCCC(=O)N3CN(CN(C3)C(=O)CCSC[C@@H](C(=O)N[C@@H](CNC(=O)Cn3cc(CCC(=O)NCCCC[C@@H]4NC(=O)[C@H](CCC(N)=O)NC(=O)[C@@H]5CSCCC(=O)N6CN(CN(C6)C(=O)CCSC[C@@H](C(=O)N6CCC[C@H]6C(=O)N[C@@H](CO)C(=O)N[C@@H](Cc6c[nH]cn6)C(N)=O)NC(=O)[C@H](CC(C)C)NC(=O)[C@H](Cc6c[nH]cn6)NC(=O)[C@H](CC(C)C)NC4=O)C(=O)CCSC[C@H](NC(=O)[C@H](CCCCN)NC(=O)[C@H](CC(=O)O)NC(=O)[C@H](CO)NC(C)=O)C(=O)N[C@@H](CO)C(=O)N[C@@H](C)C(=O)NCC(=O)N[C@@H](Cc4c[nH]c6ccccc46)C(=O)N[C@@H](CC(C)C)C(=O)N[C@@H]([C@@H](C)O)C(=O)N[C@@H](CCSC)C(=O)N5)nn3)C(N)=O)NC1=O)C(=O)CCSC[C@H](NC(C)=O)C(=O)N[C@@H](CC(C)(C)C)C(=O)N1CCC[C@H]1C(=O)N[C@@H](CCC(=O)O)C(=O)N[C@H](C)C(=O)N1CCC[C@H]1C(=O)N[C@@H](Cc1ccc(O)cc1)C(=O)N2 [BCY11378] | 3 | 80 |  |
| CCCC[C@@H]1NC(=O)[C@H](Cc2ccc(O)cc2)NC(=O)[C@@H]2CCCN2C(=O)[C@H](CC(=O)O)NC(=O)[C@H](C)NC(=O)[C@H](Cc2ccccc2)NC(=O)[C@@H]2CSCCC(=O)N3CN(CN(C3)C(=O)CCSC[C@@H](C(=O)N[C@@H](C)C(N)=O)NC1=O)C(=O)CCSC[C@H](NC(C)=O)C(=O)N[C@@H](CC(C)(C)C)C(=O)N1CCC[C@H]1C(=O)N[C@@H](CCCCNC(=O)CCOCCOCCOCCOCCOCCn1cc(CCC(=O)NCCCC[C@@H]3NC(=O)[C@H](CCC(N)=O)NC(=O)[C@@H]4CSCCC(=O)N5CN(CN(C5)C(=O)CCSC[C@@H](C(=O)N5CCC[C@H]5C(=O)N[C@@H](CO)C(=O)N[C@@H](Cc5c[nH]cn5)C(N)=O)NC(=O)[C@H](CC(C)C)NC(=O)[C@H](Cc5c[nH]cn5)NC(=O)[C@H](CC(C)C)NC3=O)C(=O)CCSC[C@H](NC(=O)[C@H](CCCCN)NC(=O)[C@H](CC(=O)O)NC(=O)[C@H](CO)NC(C)=O)C(=O)N[C@@H](CO)C(=O)N[C@@H](C)C(=O)NCC(=O)N[C@@H](Cc3c[nH]c5ccccc35)C(=O)N[C@@H](CC(C)C)C(=O)N[C@@H]([C@@H](C)O)C(=O)N[C@@H](CCSC)C(=O)N4)nn1)C(=O)N[C@H](C)C(=O)N1CCC[C@H]1C(=O)N[C@@H](Cc1ccc(O)cc1)C(=O)N2 [BCY11379] |  |  | 6 |
| CCCC[C@@H]1NC(=O)[C@H](Cc2ccc(O)cc2)NC(=O)[C@@H]2CCCN2C(=O)[C@H](CC(=O)O)NC(=O)[C@H](C)NC(=O)[C@H](Cc2ccccc2)NC(=O)[C@@H]2CSCCC(=O)N3CN(CN(C3)C(=O)CCSC[C@@H](C(=O)N[C@@H](C)C(N)=O)NC1=O)C(=O)CCSC[C@H](NC(C)=O)C(=O)N[C@@H](CC(C)(C)C)C(=O)N1CCC[C@H]1C(=O)N[C@@H](CCC(=O)O)C(=O)N[C@H](CCCCNC(=O)CCOCCOCCOCCOCCOCCn1cc(CCC(=O)NCCCC[C@@H]3NC(=O)[C@H](CCC(N)=O)NC(=O)[C@@H]4CSCCC(=O)N5CN(CN(C5)C(=O)CCSC[C@@H](C(=O)N5CCC[C@H]5C(=O)N[C@@H](CO)C(=O)N[C@@H](Cc5c[nH]cn5)C(N)=O)NC(=O)[C@H](CC(C)C)NC(=O)[C@H](Cc5c[nH]cn5)NC(=O)[C@H](CC(C)C)NC3=O)C(=O)CCSC[C@H](NC(=O)[C@H](CCCCN)NC(=O)[C@H](CC(=O)O)NC(=O)[C@H](CO)NC(C)=O)C(=O)N[C@@H](CO)C(=O)N[C@@H](C)C(=O)NCC(=O)N[C@@H](Cc3c[nH]c5ccccc35)C(=O)N[C@@H](CC(C)C)C(=O)N[C@@H]([C@@H](C)O)C(=O)N[C@@H](CCSC)C(=O)N4)nn1)C(=O)N1CCC[C@H]1C(=O)N[C@@H](Cc1ccc(O)cc1)C(=O)N2 [BCY11380] | 7 |  |  |
| CCCC[C@@H]1NC(=O)[C@H](Cc2ccc(O)cc2)NC(=O)[C@@H]2CCCN2C(=O)[C@H](CC(=O)O)NC(=O)[C@H](C)NC(=O)[C@H](Cc2ccccc2)NC(=O)[C@@H]2CSCCC(=O)N3CN(CN(C3)C(=O)CCSC[C@@H](C(=O)N[C@@H](CNC(=O)CCOCCOCCOCCOCCOCCn3cc(CCC(=O)NCCCC[C@@H]4NC(=O)[C@H](CCC(N)=O)NC(=O)[C@@H]5CSCCC(=O)N6CN(CN(C6)C(=O)CCSC[C@@H](C(=O)N6CCC[C@H]6C(=O)N[C@@H](CO)C(=O)N[C@@H](Cc6c[nH]cn6)C(N)=O)NC(=O)[C@H](CC(C)C)NC(=O)[C@H](Cc6c[nH]cn6)NC(=O)[C@H](CC(C)C)NC4=O)C(=O)CCSC[C@H](NC(=O)[C@H](CCCCN)NC(=O)[C@H](CC(=O)O)NC(=O)[C@H](CO)NC(C)=O)C(=O)N[C@@H](CO)C(=O)N[C@@H](C)C(=O)NCC(=O)N[C@@H](Cc4c[nH]c6ccccc46)C(=O)N[C@@H](CC(C)C)C(=O)N[C@@H]([C@@H](C)O)C(=O)N[C@@H](CCSC)C(=O)N5)nn3)C(N)=O)NC1=O)C(=O)CCSC[C@H](NC(C)=O)C(=O)N[C@@H](CC(C)(C)C)C(=O)N1CCC[C@H]1C(=O)N[C@@H](CCC(=O)O)C(=O)N[C@H](C)C(=O)N1CCC[C@H]1C(=O)N[C@@H](Cc1ccc(O)cc1)C(=O)N2 [BCY11381] |  |  | 7 |
